Assay results as given in article PMC11864979, “First-in-class ultralong-target-residence-time p38α inhibitors as a mitosis-targeted therapy for colorectal cancer” (Nature Cancer, 2025).
Like-named read-outs stand apart in the source and are kept apart here.

Assays:
Assay in all cases: selectivity profiling in a panel of 340 wild-type kinases (Reaction Biology Europe)
Type in all cases: binding
340 wild-type kinases [1] = target: T1, 340 wild-type kinases (Homo sapiens, UniProt Q99986)
T1 construct: purchased Reaction Biology Europe
T1 sequence (Q99986 1-396): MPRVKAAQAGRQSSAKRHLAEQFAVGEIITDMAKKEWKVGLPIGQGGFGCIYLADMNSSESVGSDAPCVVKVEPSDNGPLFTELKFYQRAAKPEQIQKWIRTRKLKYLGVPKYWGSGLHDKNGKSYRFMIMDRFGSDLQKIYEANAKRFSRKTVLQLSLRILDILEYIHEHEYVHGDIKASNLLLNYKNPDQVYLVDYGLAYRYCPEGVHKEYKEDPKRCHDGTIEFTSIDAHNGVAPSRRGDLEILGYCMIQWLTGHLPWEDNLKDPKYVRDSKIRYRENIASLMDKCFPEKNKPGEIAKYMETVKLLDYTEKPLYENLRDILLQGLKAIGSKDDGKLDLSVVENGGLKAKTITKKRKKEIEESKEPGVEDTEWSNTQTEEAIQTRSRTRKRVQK

340 wild-type kinases [2] = target: T2, 340 wild-type kinases (Homo sapiens, UniProt O00311)
T2 construct: purchased Reaction Biology Europe

340 wild-type kinases [3] = target: T3, 340 wild-type kinases (Homo sapiens, UniProt P29320)
T3 construct: purchased Reaction Biology Europe
T3 sequence (P29320 21-983): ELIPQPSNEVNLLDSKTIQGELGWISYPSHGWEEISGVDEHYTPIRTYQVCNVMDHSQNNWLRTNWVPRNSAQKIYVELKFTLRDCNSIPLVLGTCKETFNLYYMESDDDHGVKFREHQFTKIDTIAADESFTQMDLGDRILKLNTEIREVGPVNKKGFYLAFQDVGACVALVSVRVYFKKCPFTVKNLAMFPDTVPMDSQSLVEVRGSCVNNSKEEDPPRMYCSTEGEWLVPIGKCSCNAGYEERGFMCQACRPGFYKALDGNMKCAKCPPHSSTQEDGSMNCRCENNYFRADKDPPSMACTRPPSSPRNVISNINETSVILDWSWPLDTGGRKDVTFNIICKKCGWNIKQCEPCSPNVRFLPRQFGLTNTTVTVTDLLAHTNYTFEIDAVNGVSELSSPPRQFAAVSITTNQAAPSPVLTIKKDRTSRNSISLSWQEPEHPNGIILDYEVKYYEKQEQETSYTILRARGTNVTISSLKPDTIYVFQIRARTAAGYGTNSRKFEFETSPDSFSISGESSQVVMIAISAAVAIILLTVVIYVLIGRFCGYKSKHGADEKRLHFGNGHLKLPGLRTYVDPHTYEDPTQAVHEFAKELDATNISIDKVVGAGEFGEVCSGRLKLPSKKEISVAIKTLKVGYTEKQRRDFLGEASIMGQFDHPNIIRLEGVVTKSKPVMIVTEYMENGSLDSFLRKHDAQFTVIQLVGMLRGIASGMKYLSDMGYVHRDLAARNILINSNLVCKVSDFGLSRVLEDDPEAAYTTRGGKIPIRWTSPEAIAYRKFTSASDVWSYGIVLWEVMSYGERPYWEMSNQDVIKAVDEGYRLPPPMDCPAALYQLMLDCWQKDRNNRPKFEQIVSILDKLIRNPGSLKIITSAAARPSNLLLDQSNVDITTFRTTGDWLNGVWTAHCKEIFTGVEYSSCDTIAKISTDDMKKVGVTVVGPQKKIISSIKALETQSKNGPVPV

340 wild-type kinases [4] = target: T4, 340 wild-type kinases (Homo sapiens, UniProt Q9BZL6)
T4 construct: purchased Reaction Biology Europe
T4 sequence (Q9BZL6 1-878): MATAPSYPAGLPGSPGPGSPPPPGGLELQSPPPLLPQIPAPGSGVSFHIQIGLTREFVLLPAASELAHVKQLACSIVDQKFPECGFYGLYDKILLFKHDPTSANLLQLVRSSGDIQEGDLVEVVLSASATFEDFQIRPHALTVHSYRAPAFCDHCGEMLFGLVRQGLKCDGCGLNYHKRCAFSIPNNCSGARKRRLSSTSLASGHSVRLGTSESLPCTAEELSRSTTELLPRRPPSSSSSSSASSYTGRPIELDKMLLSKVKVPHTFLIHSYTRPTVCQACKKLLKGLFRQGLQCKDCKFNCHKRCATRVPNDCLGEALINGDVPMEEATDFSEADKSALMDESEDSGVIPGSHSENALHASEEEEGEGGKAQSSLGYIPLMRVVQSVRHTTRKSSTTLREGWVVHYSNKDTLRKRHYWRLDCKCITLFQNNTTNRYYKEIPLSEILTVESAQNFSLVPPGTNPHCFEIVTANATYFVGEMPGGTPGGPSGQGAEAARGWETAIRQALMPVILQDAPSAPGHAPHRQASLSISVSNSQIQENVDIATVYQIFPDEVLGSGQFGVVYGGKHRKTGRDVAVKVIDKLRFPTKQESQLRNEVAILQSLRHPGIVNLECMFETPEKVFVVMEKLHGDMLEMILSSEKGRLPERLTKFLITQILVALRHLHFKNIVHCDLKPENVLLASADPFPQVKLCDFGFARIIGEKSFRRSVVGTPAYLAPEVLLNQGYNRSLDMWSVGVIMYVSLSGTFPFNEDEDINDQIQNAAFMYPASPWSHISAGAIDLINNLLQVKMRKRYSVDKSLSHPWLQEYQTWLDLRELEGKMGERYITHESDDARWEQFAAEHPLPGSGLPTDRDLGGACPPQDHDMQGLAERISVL

340 wild-type kinases [5] = target: T5, 340 wild-type kinases (Homo sapiens, UniProt Q13554)
T5 construct: purchased Reaction Biology Europe

340 wild-type kinases [6] = target: T6, 340 wild-type kinases (Homo sapiens, UniProt Q86V86)
T6 construct: purchased Reaction Biology Europe

340 wild-type kinases [7] = target: T7, 340 wild-type kinases (Homo sapiens, UniProt Q13464)
T7 construct: purchased Reaction Biology Europe
T7 sequence (Q13464 whole entry): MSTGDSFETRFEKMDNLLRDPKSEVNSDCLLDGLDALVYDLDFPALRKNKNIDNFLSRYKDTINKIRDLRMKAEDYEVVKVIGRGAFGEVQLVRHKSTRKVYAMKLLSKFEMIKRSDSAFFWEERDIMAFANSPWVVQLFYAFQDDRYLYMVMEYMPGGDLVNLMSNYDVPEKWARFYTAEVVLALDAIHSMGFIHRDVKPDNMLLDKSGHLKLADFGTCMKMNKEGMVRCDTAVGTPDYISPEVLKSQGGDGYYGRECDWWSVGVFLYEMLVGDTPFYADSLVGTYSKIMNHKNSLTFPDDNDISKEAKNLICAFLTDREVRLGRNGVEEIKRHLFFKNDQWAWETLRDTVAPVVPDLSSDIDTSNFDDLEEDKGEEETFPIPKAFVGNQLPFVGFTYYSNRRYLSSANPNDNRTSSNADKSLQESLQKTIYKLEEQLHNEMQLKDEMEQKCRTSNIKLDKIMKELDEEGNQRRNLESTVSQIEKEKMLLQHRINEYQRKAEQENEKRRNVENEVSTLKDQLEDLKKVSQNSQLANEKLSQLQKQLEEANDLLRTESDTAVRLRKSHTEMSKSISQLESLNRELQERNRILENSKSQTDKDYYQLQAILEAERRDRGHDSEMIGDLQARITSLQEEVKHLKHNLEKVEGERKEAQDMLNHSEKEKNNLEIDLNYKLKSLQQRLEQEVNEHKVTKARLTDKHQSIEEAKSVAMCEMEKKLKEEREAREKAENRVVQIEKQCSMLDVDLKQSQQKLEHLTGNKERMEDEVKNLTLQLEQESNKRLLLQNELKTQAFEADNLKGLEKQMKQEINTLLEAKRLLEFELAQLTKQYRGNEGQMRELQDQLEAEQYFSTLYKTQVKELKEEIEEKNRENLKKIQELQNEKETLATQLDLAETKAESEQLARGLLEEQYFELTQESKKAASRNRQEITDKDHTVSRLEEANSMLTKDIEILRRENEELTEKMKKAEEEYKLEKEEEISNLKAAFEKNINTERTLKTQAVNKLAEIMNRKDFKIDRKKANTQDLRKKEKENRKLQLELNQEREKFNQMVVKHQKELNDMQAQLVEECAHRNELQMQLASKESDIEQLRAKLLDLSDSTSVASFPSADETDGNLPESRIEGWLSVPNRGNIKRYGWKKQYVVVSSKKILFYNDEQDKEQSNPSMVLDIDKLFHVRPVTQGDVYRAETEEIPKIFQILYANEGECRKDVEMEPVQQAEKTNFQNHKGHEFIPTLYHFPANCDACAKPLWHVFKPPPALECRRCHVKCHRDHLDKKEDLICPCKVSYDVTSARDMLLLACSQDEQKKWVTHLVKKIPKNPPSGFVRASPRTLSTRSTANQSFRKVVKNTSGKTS

T5 sequence (Q13554 whole entry): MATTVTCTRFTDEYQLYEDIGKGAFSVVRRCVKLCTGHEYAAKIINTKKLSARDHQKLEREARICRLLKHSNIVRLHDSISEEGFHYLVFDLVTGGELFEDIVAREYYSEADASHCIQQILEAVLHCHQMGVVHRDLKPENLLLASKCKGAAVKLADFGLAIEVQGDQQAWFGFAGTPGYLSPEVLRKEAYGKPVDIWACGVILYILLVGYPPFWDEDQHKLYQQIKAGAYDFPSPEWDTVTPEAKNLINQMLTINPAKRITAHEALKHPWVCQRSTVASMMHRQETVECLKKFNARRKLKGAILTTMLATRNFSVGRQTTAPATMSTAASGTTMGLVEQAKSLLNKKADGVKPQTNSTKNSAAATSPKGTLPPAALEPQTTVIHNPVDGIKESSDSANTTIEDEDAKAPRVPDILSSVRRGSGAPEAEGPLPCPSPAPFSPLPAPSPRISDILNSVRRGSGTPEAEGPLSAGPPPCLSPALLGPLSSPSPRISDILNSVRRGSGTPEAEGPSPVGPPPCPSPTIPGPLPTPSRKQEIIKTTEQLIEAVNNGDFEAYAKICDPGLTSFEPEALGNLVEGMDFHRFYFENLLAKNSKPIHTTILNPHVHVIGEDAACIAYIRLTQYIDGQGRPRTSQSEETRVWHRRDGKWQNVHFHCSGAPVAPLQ
T2 sequence (O00311 whole entry): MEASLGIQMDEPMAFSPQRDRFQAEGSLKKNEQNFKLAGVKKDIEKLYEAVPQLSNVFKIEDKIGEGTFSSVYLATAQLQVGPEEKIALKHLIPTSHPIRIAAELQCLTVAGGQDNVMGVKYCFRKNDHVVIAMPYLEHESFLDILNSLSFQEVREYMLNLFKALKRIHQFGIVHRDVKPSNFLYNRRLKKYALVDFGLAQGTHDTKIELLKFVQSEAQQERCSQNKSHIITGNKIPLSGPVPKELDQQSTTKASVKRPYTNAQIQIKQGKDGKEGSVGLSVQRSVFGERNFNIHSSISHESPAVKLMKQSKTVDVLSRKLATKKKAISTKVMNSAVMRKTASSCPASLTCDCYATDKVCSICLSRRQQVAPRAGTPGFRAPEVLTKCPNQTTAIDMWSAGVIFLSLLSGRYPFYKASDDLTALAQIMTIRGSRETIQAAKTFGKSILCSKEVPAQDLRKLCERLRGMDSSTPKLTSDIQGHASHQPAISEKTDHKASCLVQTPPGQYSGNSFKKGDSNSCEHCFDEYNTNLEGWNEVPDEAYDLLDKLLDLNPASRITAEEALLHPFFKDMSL

SMILES: CNC(=O)c1ccc2c(c1)C(=O)c1ccc(Nc3ccc(F)c(NC(=O)C4CC4)c3)cc1CC2 [Compound 2015]
- remaining activity at 0.2 µM (340 wild-type kinases [1]; 0.2 µM 2015, read-out: VRK1 residual activity): 96.8%
- remaining activity at 1 µM (340 wild-type kinases [1]; 1 µM 2015, read-out: VRK1 residual activity): 87.2%
- remaining activity at 0.2 µM (340 wild-type kinases [1]; VRK1, 0.2 µM, read-out: residual activity): 96.8%
- remaining activity at 1 µM (340 wild-type kinases [1]; VRK1, 1 µM, read-out: residual activity): 87.2%
- remaining activity at 0.2 µM (340 wild-type kinases [2]; 0.2 µM 2015, read-out: CDC7/DBF4 residual activity): 108%
- remaining activity at 1 µM (340 wild-type kinases [2]; 1 µM 2015, read-out: CDC7/DBF4 residual activity): 95.1%
- remaining activity at 0.2 µM (340 wild-type kinases [2]; CDC7/DBF4, 0.2 µM, read-out: residual activity): 108%
- remaining activity at 1 µM (340 wild-type kinases [2]; CDC7/DBF4, 1 µM, read-out: residual activity): 95.1%
- remaining activity at 0.2 µM (340 wild-type kinases [3]; 0.2 µM 2015, read-out: EPHA3 residual activity): 100%
- remaining activity at 1 µM (340 wild-type kinases [3]; 1 µM 2015, read-out: EPHA3 residual activity): 96.4%
- remaining activity at 0.2 µM (340 wild-type kinases [3]; EPHA3, 0.2 µM, read-out: residual activity): 100%
- remaining activity at 1 µM (340 wild-type kinases [3]; EPHA3, 1 µM, read-out: residual activity): 96.3%
- remaining activity at 0.2 µM (340 wild-type kinases [4]; 0.2 µM 2015, read-out: PRKD2 residual activity): 66.4%
- remaining activity at 1 µM (340 wild-type kinases [4]; 1 µM 2015, read-out: PRKD2 residual activity): 91.3%
- remaining activity at 0.2 µM (340 wild-type kinases [4]; PRKD2, 0.2 µM, read-out: residual activity): 66.4%
- remaining activity at 1 µM (340 wild-type kinases [4]; PRKD2, 1 µM, read-out: residual activity): 91.3%
- remaining activity at 0.2 µM (340 wild-type kinases [5]; 0.2 µM 2015, read-out: CAMK2B residual activity): 112%
- remaining activity at 1 µM (340 wild-type kinases [5]; 1 µM 2015, read-out: CAMK2B residual activity): 89%
- remaining activity at 0.2 µM (340 wild-type kinases [5]; CAMK2B, 0.2 µM, read-out: residual activity): 112%
- remaining activity at 1 µM (340 wild-type kinases [5]; CAMK2B, 1 µM, read-out: residual activity): 89%
- remaining activity at 0.2 µM (340 wild-type kinases [6]; 0.2 µM 2015, read-out: PIM3 residual activity): 95.8%
- remaining activity at 1 µM (340 wild-type kinases [6]; 1 µM 2015, read-out: PIM3 residual activity): 92.3%
- remaining activity at 0.2 µM (340 wild-type kinases [6]; PIM3, 0.2 µM, read-out: residual activity): 95.8%
- remaining activity at 1 µM (340 wild-type kinases [6]; PIM3, 1 µM, read-out: residual activity): 92.2%
- remaining activity at 0.2 µM (340 wild-type kinases [7]; 0.2 µM 2015, read-out: ROCK1 residual activity): 95.1%
- remaining activity at 1 µM (340 wild-type kinases [7]; 1 µM 2015, read-out: ROCK1 residual activity): 87.2%
- remaining activity at 0.2 µM (340 wild-type kinases [7]; ROCK1, 0.2 µM, read-out: residual activity): 95.1%
- remaining activity at 1 µM (340 wild-type kinases [7]; ROCK1, 1 µM, read-out: residual activity): 87.2%
